Measurements taken from US20240302376A1, “METHOD FOR IDENTIFYING SUBGROUPS OF CIRCULATING TUMOR CELLS (CTCS) IN THE CTC POPULATION OF A BIOLOGICAL SAMPLE” (priority 2012, published 2024).

Legend:
[1] = tested on: Pt-(GpG) adducts in DNA of CTC and CD45-positive cells; assay: Pt-(GpG) DNA adducts in CD45/CD15-depleted mononuclear cell fraction exposed to cisplatin ex vivo; type: cell-based, human; conditions: after exposure to cisplatin, NSCLC patient blood
Source text: Pt-(GpG) intrastrand crosslinks are the major DNA adducts induced by platinum-based anticancer drugs. […] Pt-(GpG) DNA adducts in CTCs treated with cisplatin in medium upfront to systemic therapy from patients with advanced non-small-cell lung cancer (NSCLC) was studied.
Blood was drawn before systemic treatment and the CD45/CD15-depleted fraction of mononuclear cells was exposed to cisplatin, verified for the presence of CTC by pan-cytokeratin (pCK) staining and immunoanalysed for the level of Pt-(GpG) in DNA. Pt-(GpG) adducts can be detected in CTC from NSCLC patients and assessing their kinetics constitutes a clinically feasible biomarker for response prediction and dose individualisation of platinum-based chemotherapy.
Epithelial CTCs were detected that stained positive for DAPI and pCK and negative for CD45. The ratio of pCK− positive to CD45-positive cells in the depleted fractions was in the range of […], resulting in up to three CTC per cell spot on the slides. […]
The measurement of Pt-(GpG) adducts in the nuclear DNA of short term-exposed CTC depict a characteristic time course of formation and removal. […] The degree of association was calculated between these three values of ex vivo adduct persistence in CTC from 11 patients with their therapeutic response using the Spearman's rho rank correlation coefficient. […]

[2] = tested on: Pt-(GpG) in the DNA of CTC; assay: Pt-(GpG) adduct levels in CTC after cisplatin infusion versus ex vivo exposure; design: species or system human; conditions: clinical dose 50 mgm_2 (1.4 mg kg_1 body weight); blood at baseline and 2, 4 and 24 h after infusion; same patient
Protocol: To test whether adduct kinetics measured in tumour cells after ex vivo exposure to cisplatin mirror the formation and repair rates for Pt-(GpG) in the DNA of those cells in vivo during systemic treatment, blood samples from the same patient were analysed under both the conditions.

Compound: N.N.[Cl][Pt][Cl] [cisplatin]
- levels of DNA platination in CD45-positive cells as compared with CTC (fold lower) [1]: ~10 fold
- CTC adduct levels after clinical dose versus ex vivo exposure [2]: comparable to a short time ex vivo exposure with 20 mgml_1 for 2 h
